In brackets after ≈: the same amount, converted by molar mass. Where two headings read alike, the source gives them in different places.
Experiments:
V. cholerae PC2 = assay: Broth microdilution MIC/MBC; format: cell-based, Vibrio cholerae; conditions: Vibrio cholerae, V. cholerae PC2
Protocol: (§1) A total of six bacterial strains were tested for their susceptibility to compounds and these strains were taken from our laboratory collection (kindly provided by Dr. T. Ramamurthy, NICED, Kolkata). Among the clinical strains of Vibrio cholerae used in this study, strains NB2 and SG24 and CO6 belonged to O1 and O139 serotypes, respectively. […]. The other strains used in this study were V. cholerae non-O1, non-O139 (strain PC2); […]. The American Type Culture Collection (ATCC) strain, Staphylococcus aureus ATCC 25923, was used for quality control. The bacterial strains were maintained on agar slant at 4 °C and subcultured on a fresh appropriate agar plates 24 h prior to any antibacterial test. The Mueller Hinton Agar (MHA) was used for the activation of bacteria. The Mueller Hinton Broth (MHB) and nutrient agar (Hi-Media) were used for the MIC and MBC determinations respectively.
(§2) Suspensions of bacteria were prepared in MHB from cells arrested during their logarithmic phase growth (4 h) on MHB at 37 °C. The turbidity of the microbial suspension was read spectrophotometrically at 600 nm and adjusted to an OD of 0.1 with MHB, which is equivalent to 1 × 10^8 CFU/mL. From this prepared solution, other dilutions were made with MHB to yield 1x10^6 CFU/mL.
(§3) MIC and MBC of compounds 1–3 were assessed using the broth microdilution method recommended by the National Committee for Clinical Laboratory Standards with slight modifications. Each test sample was dissolved in dimethylsulfoxide (DMSO) to give a stock solution. The 96-well round bottom sterile plates were prepared by dispensing 180 μL of the inoculated broth (1x10^6 CFU/mL) into each well. A 20 μL aliquot of the stock solution of compound was added. The concentrations of sample tested were 0.125, 0.25, 0.50, 1, 2, 4, 8, 16, 32, 64, 128, 256 and 512 μg/mL. […] Dilutions of tetracycline and ampicillin served as positive controls, while broth with 20 μL of DMSO was used as negative control. The ATCC strain Staphylococcus aureus ATCC 25923 was included for quality assurance purposes. Plates were covered and incubated for 24 h at 37 °C. After incubation, minimum inhibitory concentrations (MIC) were read visually; all wells were plated to nutrient agar (Hi-Media) and incubated. The minimal bactericidal concentration (MBC) was defined as a 99.9% reduction in CFU from the starting inoculums after 24 h incubation interval.

V. cholerae CO6 = assay: Broth microdilution MIC/MBC; format: cell-based, Vibrio cholerae
Protocol: as §1, §2, §3

V. cholerae SG24 = assay: Broth microdilution MIC/MBC; format: cell-based, Vibrio cholerae; conditions: Vibrio cholerae
Protocol: as §1, §2, §3

V. cholerae NB2 = assay: Broth microdilution MIC/MBC; format: cell-based, Vibrio cholerae
Protocol: as §1, §2, §3

S. flexneri SDINT = assay: Broth microdilution MIC/MBC; format: cell-based, Shigella flexneri
Protocol: as §1, §2, §3

MTT cytotoxicity assay [1] = format: cell-based; conditions: African green monkey, Vero cells, normal non-cancer cells, mean ± SD, read-out: Cytotoxicty (LC50) Vero cells
Protocol: (§4) HeLa (Human cervical cancer cell line, ATCC No. CCL-2) and Vero cells (African green monkey kidney cells, normal non-cancer cells, ATCC No. CCL-81), obtained from the American Type Culture Collection (ATCC) were used in this study. Cytotoxic activity was determined using the 3-(4,5-dimethylthiazol-2-yl)-2,5-diphenyltetrazolium bromide (MTT, Sigma, USA) assay reported by Mosmann for the HeLa and Vero cells. This cell viability assay is based on living cell‘s property to transform the MTT dye tetrazolium ring into a purple-colored formazan structure due to the action of mitochondrial and other dehydrogenases inside the cell. The color intensity yielded by the cell population is directly proportional to the number of viable cells, and one can quantify the absorbance measurements using mathematical parameters. Each test sample was dissolved in dimethylsulfoxide (DMSO) to give a stock solution. Compounds 1–3 were prepared from the stock solutions by serial dilution in RPMI 1640 to give a volume of 100 μL in each well of a microtiter plate (96-well). Each well was filled with 100 μL of cells at 2 × 10^5 cells/mL. The assay for each concentration of compound was performed in triplicates and the culture plates were kept at 37 °C with 5% (v/v) CO2 for 24 h. After removing the supernatant of each well and washing twice by PBS, 20 μL of MTT solution (5 mg/mL in PBS) and 100 μL of medium were then introduced. After 4 h of incubation, 100 μL of DMSO were added to each well to dissolve the formazan crystals and the absorbance values at 490 nm were measured with a microplate reader (Bio-RAD 680, USA). The relative cell viability (%) was expressed as a relative percentage of treated cells to the untreated control cells (TC/UC × 100). The rate of cell inhibition was calculated using the following formula: inhibition rate = [1- (ODtest/ODnegative control)] × 100%. The LC50 values were calculated as the concentration of test sample resulting in a 50% reduction of absorbance compared to untreated cells. Cells treated with 5-fluorouridine + RPMI 1640 served as positive control while cells left untreated + 1% (v/v) DMSO + RPMI 1640 were used as negative control.

HeLa cells = assay: MTT cytotoxicity assay; format: cell-based, Human; conditions: SI = LC50 on Vero cells / LC50 on HeLa cells
Protocol: as §4

MTT cytotoxicity assay [2] = format: cell-based, Human; conditions: human, HeLa cells; MTT, 24 h, mean ± SD; read-out: Cytotoxicty (LC50) HeLa cells
Protocol: as §4

[3] = system: studied microorganisms (six bacterial strains); assay: Antibacterial spectrum over the six tested strains (broth microdilution); format: cell-based; conditions: out of 6 strains; concentrations up to 512 μg/mL
Protocol: as §1, §3

Hemolytic assay = format: cell-based; conditions: male, 1% human red blood cell suspension, 512 μg/mL (highest concentration tested), 1% human red blood cells, PBS pH 7.4, 37 °C
Protocol: Whole blood (10 mL) from a healthy person was collected into a conical tube containing heparin as an anticoagulant. Erythrocytes were harvested by centrifugation at room temperature for 10 min at 1,000 × g and were washed three times in PBS solution. The top layer (plasma) and the next, milky layer (buffy coat with a layer of platelets on top of it) were then carefully aspirated and discarded. The cell pellet was resuspended in 10 mL of PBS solution and mixed by gentle aspiration with a Pasteur pipette. This cell suspension was used immediately.
For the normal human red blood cells, which were in suspension, the cytotoxicity was evaluated as previously described. Compounds 1–3, at concentrations ranging from 32 to 512 μg/mL, were incubated with an equal volume of 1% human red blood cells in phosphate buffered saline (10 mM PBS, pH 7.4) at 37 °C for 1 h. Tetracycline was tested simultaneously. Non-hemolytic and 100% hemolytic controls were the buffer alone and the buffer containing 1% Triton X-100, respectively. Cell lysis was monitored by measuring the release of hemoglobin at 595 nm with a spectrophotometer (Thermo Scientific, USA). Percent hemolysis was calculated as follows: [(A595 of sample treated with compound - A595 of sample treated with buffer)/(A595 of sample treated with Triton X-100 – A595 of sample treated with buffer)] x 100.

S. aureus ATCC 25923 = assay: Broth microdilution MIC/MBC; format: cell-based, Staphylococcus aureus
Protocol: as §1, §2, §3

[4] = 99.9% reduction in CFU after 24 h

## C=C1[C@@H](C)C2[C@H](Cc3ccccc3)NC(=O)[C@@]23C(/C=C/C[C@H](C)C[C@@](C)(O)/C=C/[C@H]3O)[C@@H]1O (stereo partly shown) [Compound 3, cytochalasin J]
V. cholerae PC2; [4]
  MBC: > 512 µg/mL
V. cholerae PC2; 24 h at 37 °C, read-out: MIC
  MIC: > 512 µg/mL
V. cholerae CO6; SI = LC50 on Vero cells / MIC
  Selectivity Index V. cholerae CO6: 0.14
V. cholerae CO6; V. cholerae CO6
  MBC/MIC: 1
V. cholerae CO6; Vibrio cholerae, V. cholerae CO6, 99.9% reduction in CFU after 24 h
  MBC: 512 µg/mL (≈ 1130 µM)
V. cholerae CO6; Vibrio cholerae, V. cholerae CO6, 24 h at 37 °C
  MIC: 512 µg/mL (≈ 1130 µM)
V. cholerae SG24; [4]
  MBC: > 512 µg/mL
V. cholerae SG24; 24 h at 37 °C
  MIC: > 512 µg/mL
V. cholerae NB2; SI = LC50 on Vero cells / MIC
  Selectivity Index V. cholerae NB2: 0.14
V. cholerae NB2; V. cholerae NB2
  MBC/MIC: 1
V. cholerae NB2; Vibrio cholerae, V. cholerae NB2, 99.9% reduction in CFU after 24 h
  MBC: 512 µg/mL (≈ 1130 µM)
V. cholerae NB2; Vibrio cholerae, V. cholerae NB2, 24 h at 37 °C, read-out: MIC
  MIC: 512 µg/mL (≈ 1130 µM)
S. flexneri SDINT; S. flexneri SDINT
  MBC/MIC: 1
S. flexneri SDINT; SI = LC50 on Vero cells / MIC
  Selectivity Index S. flexneri SDINT: 0.57
S. flexneri SDINT; Shigella flexneri, S. flexneri SDINT, 99.9% reduction in CFU after 24 h
  MBC: 128 µg/mL (≈ 283 µM)
S. flexneri SDINT; Shigella flexneri, S. flexneri SDINT, 24 h at 37 °C, read-out: MIC
  MIC: 128 µg/mL (≈ 283 µM)
MTT cytotoxicity assay [1]
  CC50 at 24 h: 73.9 ± 0.92 µg/mL (≈ 164 µM)
HeLa cells
  Selectivity Index HeLa cells: 20.18
MTT cytotoxicity assay [2]
  CC50 at 24 h: 3.66 ± 0.33 µg/mL (≈ 8.1 µM)
[3]
  share of the studied microorganisms on which inhibitory effects were noted: 66.66%
Hemolytic assay
  hemolysis at 1 h, 512 μg/mL: < 10%
S. aureus ATCC 25923; S. aureus ATCC 25923
  MBC/MIC: 1
S. aureus ATCC 25923; SI = LC50 on Vero cells / MIC
  Selectivity Index S. aureus ATCC 25923: 0.14
S. aureus ATCC 25923; Staphylococcus aureus, ATCC25923, S. aureus ATCC 25923, 99.9% reduction in CFU after 24 h
  MBC: 512 µg/mL (≈ 1130 µM)
S. aureus ATCC 25923; Staphylococcus aureus, ATCC25923, S. aureus ATCC 25923, 24 h at 37 °C
  MIC: 512 µg/mL (≈ 1130 µM)

Reference: article PMC5109658, “Antibacterial and cytotoxic cytochalasins from the endophytic fungus Phomopsis sp. harbored in Garcinia kola (Heckel) nut” (BMC Complementary and Alternative Medicine, 2016)
